These results are taken from patent US10851098B2, “Azole amides and amines as alpha v integrin inhibitors” (BRISTOL-MYERS SQUIBB COMPANY, priority 2016, dated 2020).

One assay addresses T1, human αVβ6 (Homo sapiens, UniProt P06756+P18564).
T1 construct: purchased R & D systems 3817-AV
As to the kind of experiment: human αVβ6 HTRF binding assay. An outline of the steps:
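HTRF binding format with biotinylated integrin, FITC-fibronectin and streptavidin-terbium, run in 20 mM Tris pH 7.4, 1 mM MgCl2, 1 mM MnCl2, 0.01% Tween 20, 0.01% BSA. A SPA-based binding assay was an alternative.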
For orientation: In TR-FRET formats the signal depends on donor and acceptor labels being close together.

The next assay concerns the target human αVβ1 (Homo sapiens, UniProt P05556+P06756). As to the kind of experiment: human αVβ1 HTRF binding assay. Here is the method: (§1) All binding assays used the HTRF (homogeneous time resolved fluorescence) technology from Cisbio International, therefore all assays are described as HTRF binding assays. The assay results for the Examples are listed above together with the characterization data. The HTRF binding assays are established for the following integrins: human αVβ6, human αVβ1, human αVβ3, human αVβ5, and human αVβ8. All assays used the following assay buffer: 20 mM Tris, pH 7.4, 1 mM MgCl2, 1 mM MnCl2, 0.01% Tween 20, and 0.01% BSA. Alternatively, a SPA-based assay was used for evaluation of receptor binding.
(§2) […]

A further assay has as its target human αVβ3 (Homo sapiens, UniProt P05106+P06756). As to the kind of experiment: human αVβ3 HTRF binding assay. On the procedure:
as §1, §2

The target in another assay is human αVβ5 (Homo sapiens, UniProt P06756+P18084). As to the kind of experiment: human αVβ5 HTRF binding assay. On the procedure: (§3) All binding assays used the HTRF (homogeneous time resolved fluorescence) technology from Cisbio International, therefore all assays are described as HTRF binding assays. The assay results for the Examples are listed above together with the characterization data. The HTRF binding assays are established for the following integrins: human αVβ6, human αVβ1, human αVβ3, human αVβ5, and human αVβ8. All assays used the following assay buffer: 20 mM Tris, pH 7.4, 1 mM MgCl2, 1 mM MnCl2, 0.01% Tween 20, and 0.01% BSA. Alternatively, a SPA-based assay was used for evaluation of receptor binding. […]

The target in the next assay is human αVβ8 (Homo sapiens, UniProt P06756+P26012). As to the kind of experiment: human αVβ8 HTRF binding assay. Here is the method: as §3

Where two headings read alike, the source gives them in different places.

Chain of human αVβ8 (P06756 31-992 limits assumed): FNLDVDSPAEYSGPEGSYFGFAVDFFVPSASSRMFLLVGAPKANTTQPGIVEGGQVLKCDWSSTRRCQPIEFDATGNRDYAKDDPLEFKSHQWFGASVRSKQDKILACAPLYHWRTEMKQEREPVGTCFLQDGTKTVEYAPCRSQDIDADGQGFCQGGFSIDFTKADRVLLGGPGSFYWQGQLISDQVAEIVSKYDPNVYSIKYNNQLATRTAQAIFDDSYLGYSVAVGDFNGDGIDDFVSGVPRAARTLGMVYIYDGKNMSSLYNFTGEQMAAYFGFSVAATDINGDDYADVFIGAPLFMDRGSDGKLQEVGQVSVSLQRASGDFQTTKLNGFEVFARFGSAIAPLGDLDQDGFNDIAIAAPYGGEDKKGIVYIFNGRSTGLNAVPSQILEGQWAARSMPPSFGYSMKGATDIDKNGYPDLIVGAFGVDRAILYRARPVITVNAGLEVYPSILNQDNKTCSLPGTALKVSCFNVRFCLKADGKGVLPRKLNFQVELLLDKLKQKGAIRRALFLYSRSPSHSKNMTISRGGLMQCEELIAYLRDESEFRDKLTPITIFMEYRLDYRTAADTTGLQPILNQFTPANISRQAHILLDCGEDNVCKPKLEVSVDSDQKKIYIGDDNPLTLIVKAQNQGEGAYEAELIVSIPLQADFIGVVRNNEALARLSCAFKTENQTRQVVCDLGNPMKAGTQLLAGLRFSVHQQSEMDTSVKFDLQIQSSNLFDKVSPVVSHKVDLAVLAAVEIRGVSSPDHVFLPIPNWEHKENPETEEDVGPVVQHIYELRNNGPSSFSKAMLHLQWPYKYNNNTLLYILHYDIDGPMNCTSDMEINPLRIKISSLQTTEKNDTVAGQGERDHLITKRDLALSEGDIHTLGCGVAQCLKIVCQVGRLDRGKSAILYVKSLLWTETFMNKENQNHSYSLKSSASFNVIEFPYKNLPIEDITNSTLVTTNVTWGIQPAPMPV
Chain of human αVβ8 (P26012 43-684 limits assumed): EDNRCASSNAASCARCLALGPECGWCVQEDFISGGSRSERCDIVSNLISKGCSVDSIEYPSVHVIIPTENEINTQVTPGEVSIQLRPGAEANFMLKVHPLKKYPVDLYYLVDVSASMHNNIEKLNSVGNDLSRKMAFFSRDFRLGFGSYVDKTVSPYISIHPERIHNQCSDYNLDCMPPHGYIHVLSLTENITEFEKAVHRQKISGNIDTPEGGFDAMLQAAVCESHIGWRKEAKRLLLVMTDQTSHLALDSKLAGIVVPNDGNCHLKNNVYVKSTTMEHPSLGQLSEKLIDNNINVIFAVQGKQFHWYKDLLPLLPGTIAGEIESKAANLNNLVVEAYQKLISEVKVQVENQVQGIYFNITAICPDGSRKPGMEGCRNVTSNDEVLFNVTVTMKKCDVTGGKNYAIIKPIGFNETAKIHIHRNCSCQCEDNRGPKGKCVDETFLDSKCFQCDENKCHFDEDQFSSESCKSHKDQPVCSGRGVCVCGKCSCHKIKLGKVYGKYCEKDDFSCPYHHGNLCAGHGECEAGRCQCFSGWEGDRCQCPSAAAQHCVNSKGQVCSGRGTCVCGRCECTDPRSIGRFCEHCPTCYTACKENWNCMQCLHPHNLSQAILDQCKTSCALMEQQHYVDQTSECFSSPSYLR
Chain of human αVβ5 (P06756 31-992 limits assumed): as the sequence (P06756 31-992 limits assumed) above
Chain of human αVβ5 (P18084 24-719 limits assumed): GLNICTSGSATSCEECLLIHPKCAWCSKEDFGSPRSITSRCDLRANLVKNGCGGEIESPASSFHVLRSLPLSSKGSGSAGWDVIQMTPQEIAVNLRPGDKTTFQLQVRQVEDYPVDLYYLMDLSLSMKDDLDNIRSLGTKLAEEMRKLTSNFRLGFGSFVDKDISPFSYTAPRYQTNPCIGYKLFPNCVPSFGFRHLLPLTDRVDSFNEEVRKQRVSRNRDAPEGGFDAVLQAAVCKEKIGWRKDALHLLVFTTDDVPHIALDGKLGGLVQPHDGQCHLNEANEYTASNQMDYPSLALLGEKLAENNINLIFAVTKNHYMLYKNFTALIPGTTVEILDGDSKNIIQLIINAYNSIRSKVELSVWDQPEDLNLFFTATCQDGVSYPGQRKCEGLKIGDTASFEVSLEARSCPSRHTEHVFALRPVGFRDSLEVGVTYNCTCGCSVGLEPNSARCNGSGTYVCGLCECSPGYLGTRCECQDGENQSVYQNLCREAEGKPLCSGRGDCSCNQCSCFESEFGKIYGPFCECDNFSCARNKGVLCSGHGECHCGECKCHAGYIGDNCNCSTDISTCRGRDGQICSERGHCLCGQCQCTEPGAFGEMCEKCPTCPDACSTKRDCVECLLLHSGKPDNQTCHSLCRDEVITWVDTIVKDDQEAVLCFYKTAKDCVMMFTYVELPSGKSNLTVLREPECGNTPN
Chain of human αVβ1 (P06756 31-992 limits assumed): as the sequence (P06756 31-992 limits assumed) above
Chain of human αVβ1 (P05556 21-728 limits assumed): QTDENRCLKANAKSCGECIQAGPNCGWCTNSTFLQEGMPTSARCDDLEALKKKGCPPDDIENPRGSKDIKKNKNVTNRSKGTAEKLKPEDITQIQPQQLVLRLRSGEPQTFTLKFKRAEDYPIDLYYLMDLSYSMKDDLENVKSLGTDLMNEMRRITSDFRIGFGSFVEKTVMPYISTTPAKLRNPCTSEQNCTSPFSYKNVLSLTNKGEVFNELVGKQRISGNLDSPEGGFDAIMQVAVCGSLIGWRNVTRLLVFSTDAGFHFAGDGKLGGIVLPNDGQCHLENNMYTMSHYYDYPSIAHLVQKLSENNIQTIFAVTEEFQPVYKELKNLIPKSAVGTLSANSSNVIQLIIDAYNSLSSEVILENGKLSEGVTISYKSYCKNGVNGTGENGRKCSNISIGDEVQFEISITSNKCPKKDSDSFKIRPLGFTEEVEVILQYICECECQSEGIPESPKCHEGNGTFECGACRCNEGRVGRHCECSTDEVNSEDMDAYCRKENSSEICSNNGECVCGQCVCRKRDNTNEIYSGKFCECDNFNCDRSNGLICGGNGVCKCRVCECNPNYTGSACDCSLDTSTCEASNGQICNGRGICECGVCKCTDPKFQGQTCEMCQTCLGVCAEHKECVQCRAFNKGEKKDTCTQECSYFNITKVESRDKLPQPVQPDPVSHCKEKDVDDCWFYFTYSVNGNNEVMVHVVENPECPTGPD
T1 sequence (P06756 31-992 limits assumed): as the sequence (P06756 31-992 limits assumed) above
T1 sequence (P18564 22-707 limits assumed): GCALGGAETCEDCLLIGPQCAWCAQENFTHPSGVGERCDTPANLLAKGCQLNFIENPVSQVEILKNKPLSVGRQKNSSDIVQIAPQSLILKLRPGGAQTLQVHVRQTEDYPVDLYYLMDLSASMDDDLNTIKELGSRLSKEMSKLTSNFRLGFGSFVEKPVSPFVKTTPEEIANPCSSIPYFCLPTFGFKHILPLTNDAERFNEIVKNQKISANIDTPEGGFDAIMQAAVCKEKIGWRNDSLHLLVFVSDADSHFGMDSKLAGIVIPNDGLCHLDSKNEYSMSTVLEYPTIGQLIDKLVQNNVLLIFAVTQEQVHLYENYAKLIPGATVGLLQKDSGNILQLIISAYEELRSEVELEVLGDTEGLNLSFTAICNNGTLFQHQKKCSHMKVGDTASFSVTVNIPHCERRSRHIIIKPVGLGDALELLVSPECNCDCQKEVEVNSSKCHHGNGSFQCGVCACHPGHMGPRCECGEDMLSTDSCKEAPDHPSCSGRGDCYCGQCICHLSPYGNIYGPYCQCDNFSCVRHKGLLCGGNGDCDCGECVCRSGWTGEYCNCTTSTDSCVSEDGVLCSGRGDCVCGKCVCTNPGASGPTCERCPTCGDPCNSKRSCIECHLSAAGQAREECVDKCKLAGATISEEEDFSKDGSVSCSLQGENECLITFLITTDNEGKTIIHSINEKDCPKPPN
Chain of human αVβ3 (P06756 31-992 limits assumed): as the sequence (P06756 31-992 limits assumed) above
Chain of human αVβ3 (P05106 27-718 limits assumed): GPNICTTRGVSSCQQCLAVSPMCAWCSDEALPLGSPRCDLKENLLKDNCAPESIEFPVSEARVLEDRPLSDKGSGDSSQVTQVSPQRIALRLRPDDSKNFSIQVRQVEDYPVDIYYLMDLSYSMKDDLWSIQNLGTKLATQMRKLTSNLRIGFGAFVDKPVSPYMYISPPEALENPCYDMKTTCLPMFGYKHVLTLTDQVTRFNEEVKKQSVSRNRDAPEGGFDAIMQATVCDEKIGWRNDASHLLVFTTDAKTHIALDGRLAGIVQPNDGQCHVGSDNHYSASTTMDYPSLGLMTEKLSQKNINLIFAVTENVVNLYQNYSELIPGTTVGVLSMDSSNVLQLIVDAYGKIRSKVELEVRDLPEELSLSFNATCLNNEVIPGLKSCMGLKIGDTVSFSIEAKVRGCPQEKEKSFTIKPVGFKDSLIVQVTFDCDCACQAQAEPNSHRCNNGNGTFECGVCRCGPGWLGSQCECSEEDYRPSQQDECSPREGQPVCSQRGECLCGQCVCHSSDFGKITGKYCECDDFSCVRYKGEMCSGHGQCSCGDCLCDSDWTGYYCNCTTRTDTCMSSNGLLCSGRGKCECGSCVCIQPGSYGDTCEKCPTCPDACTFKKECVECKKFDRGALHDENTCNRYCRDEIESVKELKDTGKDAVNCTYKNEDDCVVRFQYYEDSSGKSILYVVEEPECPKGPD

For `Cc1cc(C)c(S(=O)(=O)N[C@@H](CNC(=O)c2cnn(CCc3ccc4c(n3)NCCC4)c2)C(=O)O)c(C)c1` [Example 10, (S)-3-(1-(2-(5,6,7,8-Tetrahydro-1,8-naphthyridin-2-yl)ethyl)-1H-pyrazole-4-carboxamido)-2-((2,4,6-trimethylphenyl)sulfonamido)propanoic acid], the IC50 (in general, the point on the concentration scale where inhibition reaches its midpoint) came out at 0.5 nM at human αVβ6; 6.3 nM at human αVβ1; 1.9 nM at human αVβ3 (read-out: Human αVβ3 IC50); 0.2 nM on human αVβ5; 14 nM on human αVβ8.
In the case of `O=C(N[C@@H](CNC(=O)c1cnn(CCc2ccc3c(n2)NCCC3)c1)C(=O)O)OCc1ccccc1` [Example 12, (S)-2-(((Benzyloxy)carbonyl)amino)-3-(1-(2-(5,6,7,8-tetrahydro-1,8-naphthyridin-2-yl)ethyl)-1H-pyrazole-4-carboxamido)propanoic acid], the IC50 was 1.1 nM at human αVβ6, 2.1 nM on human αVβ3 (read-out: Human αVβ3 IC50), 0.2 nM at human αVβ5 and 49 nM on human αVβ8.
Take `CCCCOC(=O)N[C@@H](CNC(=O)c1cnn(CCc2ccc3c(n2)NCCC3)c1)C(=O)O` [Example 20, (S)-2-((Butoxycarbonyl)amino)-3-(1-(2-(5,6,7,8-tetrahydro-1,8-naphthyridin-2-yl)ethyl)-1H-pyrazole-4-carboxamido)propanoic acid]: the half-inhibitory concentration (IC50) on human αVβ6 was determined as 1.1 nM; at human αVβ1, 27 nM; on human αVβ3 (read-out: Human αVβ3 IC50) it was 1.8 nM; at human αVβ5 it was 0.2 nM; at human αVβ8, 86 nM.
Take `Cc1cc(C)c(S(=O)(=O)N[C@@H](CNC(=O)c2cn(CCc3ccc4c(n3)NCCC4)nn2)C(=O)O)c(C)c1` [Example 111]: the IC50 on human αVβ6 came to 0.8 nM; on human αVβ1 it was 46 nM; on human αVβ3 (read-out: Human αVβ3 IC50), 6.4 nM; on human αVβ5 it was 1.1 nM; at human αVβ8, 63 nM.
Take `Cc1cc(C)c(S(=O)(=O)N[C@@H](CNC(=O)c2ccn(CCc3ccc4c(n3)NCCC4)n2)C(=O)O)c(C)c1` [Example 112]: the IC50 turned out to be 1 nM at human αVβ6; 45 nM at human αVβ1; 2 nM at human αVβ3 (read-out: Human αVβ3 IC50); 0.4 nM on human αVβ5; 115 nM at human αVβ8.
For `Cc1cc(C)c(S(=O)(=O)N[C@@H](CNC(=O)c2cnn(CCc3ccc4c(n3)NCCC4)n2)C(=O)O)c(C)c1` [Example 113], the IC50 came out at 1.3 nM on human αVβ6; 111 nM on human αVβ1; 3 nM on human αVβ3 (read-out: Human αVβ3 IC50); 0.3 nM at human αVβ5; 57 nM at human αVβ8.
With `Cc1cc(C)c(S(=O)(=O)N[C@H](CNC(=O)c2cn(CCc3ccc4c(n3)NCCC4)cn2)C(=O)O)c(C)c1` [Example 114], the IC50 at human αVβ6 stood at 2 nM; on human αVβ3 (printed as αVβ4, read-out: Human αVβ4 IC50), 4.4 nM; at human αVβ5, 0.5 nM; on human αVβ8 it was 156 nM.
As for `Cc1cc(C)c(S(=O)(=O)N[C@@H](CNC(=O)c2ccn(CCc3ccc4c(n3)NCCC4)c2)C(=O)O)c(C)c1` [Example 119], the IC50 at human αVβ6 was found to be 0.5 nM; on human αVβ1, 6.3 nM; at human αVβ3 (read-out: Human αVβ3 IC50), 1.5 nM; on human αVβ5, 0.2 nM; at human αVβ8 it was 31 nM.
Turning to `O=C(N[C@H](CNC(=O)c1cn(CCc2ccc3c(n2)NCCC3)cn1)C(=O)O)OCc1ccccc1` [Example 121], the half-inhibitory concentration (IC50) turned out to be 2.3 nM on human αVβ6; 77 nM on human αVβ1; 1.6 nM on human αVβ3 (read-out: Human αVβ3 IC50); 0.3 nM on human αVβ5; 246 nM at human αVβ8.
As to `Cc1cc(C)c(S(=O)(=O)N[C@@H](CNC(=O)c2ncn(CCc3ccc4c(n3)NCCC4)n2)C(=O)O)c(C)c1` [Example 123], the IC50 at human αVβ6 was 2 nM; at human αVβ1, 126 nM; at human αVβ3 (read-out: Human αVβ3 IC50) it was 2.1 nM; on human αVβ5, 902 nM; at human αVβ8, 152 nM.
As to `O=C(N[C@@H](CNCc1cnn(CCc2ccc3c(n2)NCCC3)c1)C(=O)O)OCc1ccccc1` [Example 174, (S)-2-(((Benzyloxy)carbonyl)amino)-3-(((1-(2-(5,6,7,8-tetrahydro-1,8-naphthyridin-2-yl)ethyl)-1H-pyrazol-4-yl)methyl)amino)propanoic acid], at human αVβ6, the IC50 came to 6.2 nM.
At human αVβ6, `O=C(O)CCNCc1cnn(CCc2ccc3c(n2)NCCC3)c1` [Example 175, 3-(((1-(2-(5,6,7,8-Tetrahydro-1,8-naphthyridin-2-yl)ethyl)-1H-pyrazol-4-yl)methyl)amino)propanoic acid] showed an IC50 of 272 nM.
Same read-out and setting: under `O=C(O)CCN(Cc1cnn(CCc2ccc3c(n2)NCCC3)c1)C(=O)OCc1ccccc1` [Example 176, 3-(((Benzyloxy)carbonyl)((1-(2-(5,6,7,8-tetrahydro-1,8-naphthyridin-2-yl)ethyl)-1H-pyrazol-4-yl)methyl)amino)propanoic acid] stands 249 nM.
